Tests used:
[1] = system: Caco-2 cells; format: cell-based; conditions: IC50 concentration, 24 hr; untreated control 9.9
Method: (§1) A suspension of untreated Caco-2 or MCF-7cells (1×10^6 cells/ml) was used as negative control. Both control and test samples of cell cultures were incubated for 24 hr at 37°C and 5% CO2 atmosphere. After 24 hr incubation, adherent cells were collected, washed three times with phosphate-citrate buffer (0.2 M, pH 7.8) and fixed for 24 hr with cool ethanol at 4°C. Propidium iodide was then added to a final concentration of 50 µg/ml for DNA staining and the cells were incubated and light protected at room temperature for 3 hr. The fluorescence of the cells was analyzed in a FACScan flow cytometer (Becton Dickinson, USA). The obtained cytometric data were analyzed using WinMDI 2.8 software (The Scripps Research Institute, USA).

[2] = system: Caco-2 (human colorectal cancer); experiment: MTT cytotoxicity assay, Caco-2; format: cell-based; conditions: means of three experiments, 24 hr, read-out: IC50 Caco-2 (anti-proliferative activity)
Method: (§2) Human tumor cell lines of two different histological origins were used: Caco-2 (human colorectal cancer) and MCF-7 (human breast cancer) which were purchased from the National Cell bank of Pasteur Institute of Iran, Tehran, Iran.
(§3) Stock cell cultures were grown in RPMI 1640 medium (Gibco, USA) supplemented with 10% fetal bovine serum (FBS) and 100 unit per ml of penicillin-streptomycin (Sigma, USA) at 37°C in humidified incubator with 5% CO2 atmosphere. After three day incubation, the cells were detached using 0.25% Trypsin-0.05% EDTA solution (Biogene, Iran), and resuspended in RPMI 1640 medium containing 10% FBS. Cell count and viability was determined by Trypan blue staining followed by hemocytometry.
(§4) After incubation periods, 3-(4,5-Dimethylthiazol-2-yl)-2,5-diphenyltetrazolium bromide , MTT (Sigma, USA) was added to each well at the concentration of 0.5 mg/ml. Subsequently, microtiter plate was incubated for an additional 3 hr at 37°C and each medium was then removed prior to the addition of dimethyl sulfoxide to dissolve the formazan crystal formed by viable cells.

[3] = molecular target: T1, ovine COX-2 (Ovis aries, UniProt P79208); experiment: biochemical; conditions: mean of two determinations
T1 construct: purchased Cayman Chemical Company 760111
T1 sequence (P79208 17-603): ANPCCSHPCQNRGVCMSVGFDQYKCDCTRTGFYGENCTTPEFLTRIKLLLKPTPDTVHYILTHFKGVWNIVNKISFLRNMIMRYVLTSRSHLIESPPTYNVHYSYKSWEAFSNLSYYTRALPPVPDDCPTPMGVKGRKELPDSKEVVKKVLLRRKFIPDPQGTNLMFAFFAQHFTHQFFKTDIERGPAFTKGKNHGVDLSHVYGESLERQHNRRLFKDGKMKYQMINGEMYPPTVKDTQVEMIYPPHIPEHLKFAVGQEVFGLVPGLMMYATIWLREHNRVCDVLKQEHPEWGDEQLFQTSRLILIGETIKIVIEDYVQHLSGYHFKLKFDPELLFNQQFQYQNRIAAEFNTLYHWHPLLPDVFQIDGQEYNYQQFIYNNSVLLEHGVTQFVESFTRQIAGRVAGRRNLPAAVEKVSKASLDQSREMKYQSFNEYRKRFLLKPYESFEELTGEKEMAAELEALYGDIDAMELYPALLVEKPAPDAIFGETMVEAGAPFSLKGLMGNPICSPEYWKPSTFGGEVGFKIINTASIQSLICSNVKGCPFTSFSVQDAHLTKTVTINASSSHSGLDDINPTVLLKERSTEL
Text: (§5) The same kit for determination of COX-1 and COX-2 inhibition was used by us previously ([11]).

[4] = molecular target: T2, ovine COX-1 (Ovis aries, UniProt P05979); experiment: biochemical; conditions: mean of two determinations
T2 construct: purchased Cayman Chemical Company 760111
T2 sequence (P05979 25-600): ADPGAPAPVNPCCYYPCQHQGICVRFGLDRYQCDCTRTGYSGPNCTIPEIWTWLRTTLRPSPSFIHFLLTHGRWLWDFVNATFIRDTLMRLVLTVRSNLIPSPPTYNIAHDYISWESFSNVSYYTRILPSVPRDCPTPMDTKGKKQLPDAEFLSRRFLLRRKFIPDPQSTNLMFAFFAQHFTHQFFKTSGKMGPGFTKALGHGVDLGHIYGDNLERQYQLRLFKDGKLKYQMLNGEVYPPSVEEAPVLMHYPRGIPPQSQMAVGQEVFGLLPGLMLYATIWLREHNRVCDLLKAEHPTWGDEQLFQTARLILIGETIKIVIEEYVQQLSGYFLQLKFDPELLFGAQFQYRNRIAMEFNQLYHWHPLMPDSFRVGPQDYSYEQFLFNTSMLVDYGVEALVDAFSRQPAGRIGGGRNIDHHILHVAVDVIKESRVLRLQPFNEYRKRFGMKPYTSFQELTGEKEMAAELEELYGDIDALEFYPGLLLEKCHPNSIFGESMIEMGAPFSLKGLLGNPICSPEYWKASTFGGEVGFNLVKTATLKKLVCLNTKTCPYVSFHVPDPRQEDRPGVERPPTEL
Text: as §5

[5] = system: MCF-7 (human breast cancer); experiment: MTT cytotoxicity assay, MCF-7; format: cell-based; conditions: MCF7, means of three experiments, 24 hr, read-out: IC50 MCF-7 (anti-proliferative activity)
Method: as §2, §3, §4

[6] = system: mice; experiment: Acetic acid-induced writhing test; format: in vivo, BALB/c mice; conditions: Mus musculus, IP, acetic acid 0.7% 1 hr after compound, writhing counted 30 min
Method: (§6) Animal experiments were carried out using 20-30 g male BALB/c mice purchased from Razi Institute, Mashhad, Iran. Animals were kept in plastic cages at room temperature of 21±2°C and 12 hr light/dark cycle. All experiments were performed according to the National Institute of Health guidelines for the care and use of laboratory animals and to the European Community Directive for the Care and use of Laboratory Animals of 1986 (86/609/EEC), and approved by our Institution’s Animal Care Committee.
The nociceptive responses in mice were investigated using writhing test. […] The number of abdominal constrictions (writhing episode) seen in treated animals was counted during a 30 min period ([12]). Celecoxib and normal saline was respectively used as positive and negative control.

[7] = system: mice; experiment: Xylene-induced ear edema test; format: in vivo, BALB/c mice; conditions: Mus musculus, IP 30 min before xylene, ears weighed after 2 hr
Method: as §6
The effect of the analogues against acute inflammation was studied using xylene-induced ear edema test in mice.
Thirty minutes later, edema was induced in each group by applying 0.03 ml of xylene to the inner surface of the right ear. After 2 hr, the mice were sacrificed under ether anesthesia and both ears were removed, sized and weighed. The increase in weight caused by the irritant was measured by subtracting the weight of the untreated left ear section from that of the treated right ear sections ([12]).

[8] = system: MCF-7 cells; experiment: Apoptosis assay (propidium iodide flow cytometry, sub-diploid cells), MCF-7; format: cell-based, human; conditions: IC50 concentration, 24 hr; untreated control 12.26
Method: as §1

IC50 [3] [µM] | IC50 [4] [µM] | melting point [°C] | Structure (SMILES) | Apoptosis% (percent sub-diploid cells), Caco-2 [1] [%] | IC50 [2] [µM] | IC50 [5] [µM] | ED50 [6] [mg/kg] | ED50 [7] [mg/kg] | Apoptosis% (percent sub-diploid cells), MCF-7 [8] [%]
0.82 | 15.6 | 95 to 96 | CSc1ncc(C2SCC(=O)N2c2ccc(Cl)cc2)n1Cc1ccccc1 (centres unmarked) [2a, 2-(1-benzyl-2-methylthio-5-imidazolyl)-3-(4-chloro-phenyl)-1,3-thiazolidin-4-ones] | 35 | 106 | 121 | 15.1 | 68.3 | 
0.71 |  | 97 to 98 | CCSc1ncc(C2SCC(=O)N2c2ccc(Cl)cc2)n1Cc1ccccc1 (centres unmarked) [2b, 2-(1-benzyl-2-ethylthio-5-imidazolyl)-3-(4-chloro-phenyl)-1,3-thiazolidin-4-one] | 54.4 | 82.3 | 110 | 39.9 | 73.6 | 45.9
 |  | 94 to 95 | CSc1ncc(C2SCC(=O)N2c2ccc(Cl)cc2)n1Cc1ccc(F)cc1 (centres unmarked) [2c, 2-[1-(4-fluorobenzyl)-2-methylthio-5-imidazolyl]-3-(4-chlorophenyl)-1,3-thiazolidin-4-ones] |  |  |  | 8.76 | 64 | 
 |  |  | Cc1ccc(-c2cc(C(F)(F)F)nn2-c2ccc(S(N)(=O)=O)cc2)cc1 [Celecoxib, celecoxib, reference compound] | 60 | 50.1 | 76.3 |  |  | 59.1
